Assays:
[1] = tested on: MSTO-211H cells; test: Proliferation Assay (CellTiter-Glo Luminescent Cell Viability Assay); type: cell-based; settings: Homo sapiens, 96 hours treatment
Summary of the method: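 MSTO-211H cells, 1,500/well in RPMI 1640 with 10% FBS, plated overnight, then treated 96 h with 9-point 3-fold compound series in duplicate (DMSO below 0.5%). Viability by CellTiter-Glo luminescence; inhibition relative to DMSO wells, IC50 by four-parameter fit.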

[2] = target: TEAD1(210-426) binding to YAP(50-100) (Homo sapiens, UniProt P28347); test: TR-FRET Assay for TEAD1(210-426) Binding to YAP(50-100); settings: His-TEAD 10 nM, YAP-Biotin peptide 50 nM
Summary of the method: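 10 nM His-TEAD1 preincubated 30 min at room temperature with compound (3-fold dilutions, 12 points, 1% DMSO), then 50 nM biotin-YAP peptide added.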

Chain of TEAD1(210-426) binding to YAP(50-100) (P28347 209-426): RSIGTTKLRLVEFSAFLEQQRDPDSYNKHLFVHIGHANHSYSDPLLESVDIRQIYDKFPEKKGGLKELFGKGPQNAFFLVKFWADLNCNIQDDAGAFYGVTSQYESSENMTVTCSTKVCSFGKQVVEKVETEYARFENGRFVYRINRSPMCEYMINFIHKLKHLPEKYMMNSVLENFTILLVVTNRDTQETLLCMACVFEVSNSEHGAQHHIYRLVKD

| Compound | IC50 [1] | IC50 [2] |
| --- | --- | --- |
| Cn1ccc(Cn2ccc(-c3nn(-c4ccc(C(F)(F)F)cc4)c4ncccc34)cc2=O)n1 [Compound 111, 1-((1-methyl-1H-pyrazol-3-yl)methyl)-4-(1-(4-(trifluoromethyl)phenyl)-1H-pyrazolo[3,4-b]pyridin-3-yl)pyridin-2(1H)-one] | ≤ 1000 nM | ≤ 100 nM |
| Nc1cc(Cn2ccc(-c3nn(-c4ccc(C(F)(F)F)cc4)c4ncccc34)cc2=O)ccn1 [Compound 112, 1-((2-aminopyridin-4-yl)methyl)-4-(1-(4-(trifluoromethyl)phenyl)-1H-pyrazolo[3,4-b]pyridin-3-yl)pyridin-2(1H)-one] | ≤ 1000 nM | ≤ 100 nM |
| O=c1cc(-c2nn(-c3ccc(C(F)(F)F)cc3)c3ncccc23)ccn1Cc1ncccn1 [Compound 115, 1-(pyrimidin-2-ylmethyl)-4-(1-(4-(trifluoromethyl)phenyl)-1H-pyrazolo[3,4-b]pyridin-3-yl)pyridin-2(1H)-one] | ≤ 1000 nM | ≤ 100 nM |
| Nc1nccc(Cn2ccc(-n3nc(-c4ccc(C(F)(F)F)cc4)c4ncccc43)cc2=O)n1 [Compound 118, 1-((2-aminopyrimidin-4-yl)methyl)-4-(3-(4-(trifluoromethyl)phenyl)-1H-pyrazolo[4,3-b]pyridin-1-yl)pyridin-2(1H)-one] | ≤ 1000 nM | ≤ 100 nM |
| Nc1ccnc(Cn2ccc(-n3nc(-c4ccc(C(F)(F)F)cc4)c4ncccc43)cc2=O)n1 [Compound 119, 1-((4-aminopyrimidin-2-yl)methyl)-4-(3-(4-(trifluoromethyl)phenyl)-1H-pyrazolo[4,3-b]pyridin-1-yl)pyridin-2(1H)-one] | ≤ 1000 nM | ≤ 100 nM |
| O=c1cc(-n2nc(-c3ccc(C(F)(F)F)cc3)c3ncccc32)ccn1Cc1cccnc1 [Compound 120, 1-(pyridin-3-ylmethyl)-4-(3-(4-(trifluoromethyl)phenyl)-1H-pyrazolo[4,3-b]pyridin-1-yl)pyridin-2(1H)-one] | ≤ 1000 nM | ≤ 100 nM |
| Nc1cc(Cn2ccc(-n3nc(-c4ccc(C(F)(F)F)cc4)c4ncccc43)cc2=O)ccn1 [Compound 121, 1-((2-aminopyridin-4-yl)methyl)-4-(3-(4-(trifluoromethyl)phenyl)-1H-pyrazolo[4,3-b]pyridin-1-yl)pyridin-2(1H)-one] | ≤ 1000 nM | ≤ 100 nM |
| CNc1ccnc(Cn2ccc(-c3nc(-c4ccc(C(F)(F)F)cc4)n4ccccc34)cc2=O)n1 [Compound 125, 1-((4-(methylamino)pyrimidin-2-yl)methyl)-4-(3-(4-(trifluoromethyl)phenyl)imidazo[1,5-a]pyridin-1-yl)pyridin-2(1H)-one] | ≤ 1000 nM | ≤ 100 nM |
| O=c1cc(-c2nn(-c3ccc(C(F)(F)F)cc3)c3ncccc23)ccn1Cc1ccnc(OCCO)n1 [Compound 126, 1-((2-(2-hydroxyethoxy)pyrimidin-4-yl)methyl)-4-(1-(4-(trifluoromethyl)phenyl)-1H-pyrazolo[3,4-b]pyridin-3-yl)pyridin-2(1H)-one] | ≤ 1000 nM | ≤ 100 nM |
| CNc1nccc(Cn2ccc(-c3nc(-c4ccc(C(F)(F)F)cc4)n4ccccc34)cc2=O)n1 [Compound 127, 1-((2-(methylamino)pyrimidin-4-yl)methyl)-4-(3-(4-(trifluoromethyl)phenyl)imidazo[1,5-a]pyridin-1-yl)pyridin-2(1H)-one] | ≤ 1000 nM | ≤ 100 nM |
| CNc1nccc(Cn2ccc(-c3nn(-c4ccc(C(F)(F)F)cc4)c4c(F)cccc34)cc2=O)n1 [Compound 128, 4-(7-fluoro-1-(4-(trifluoromethyl)phenyl)-1H-indazol-3-yl)-1-((2-(methylamino)pyrimidin-4-yl)methyl)pyridin-2(1H)-one] | ≤ 1000 nM | ≤ 100 nM |
| CNc1ccnc(Cn2ccc(-c3nn(-c4ccc(C(F)(F)F)cc4)c4c(F)cccc34)cc2=O)n1 [Compound 129, 4-(7-fluoro-1-(4-(trifluoromethyl)phenyl)-1H-indazol-3-yl)-1-((4-(methylamino)pyrimidin-2-yl)methyl)pyridin-2(1H)-one] | ≤ 1000 nM | ≤ 100 nM |
| CNc1nccc([C@@H](C)n2ccc(-c3nn(-c4ccc(C(F)(F)F)cc4)c4ncccc34)cc2=O)n1 [Compound 130, (R)-1-(1-(2-(methylamino)pyrimidin-4-yl)ethyl)-4-(1-(4-(trifluoromethyl)phenyl)-1H-pyrazolo[3,4-b]pyridin-3-yl)pyridin-2(1H)-one] | ≤ 1000 nM | 100 to 1000 nM |
| CNc1nccc([C@H](C)n2ccc(-c3nn(-c4ccc(C(F)(F)F)cc4)c4ncccc34)cc2=O)n1 [Compound 131, (S)-1-(1-(2-(methylamino)pyrimidin-4-yl)ethyl)-4-(1-(4-(trifluoromethyl)phenyl)-1H-pyrazolo[3,4-b]pyridin-3-yl)pyridin-2(1H)-one] | ≤ 1000 nM | ≤ 100 nM |
| O=c1cc(-c2nc(-c3ccc(C(F)(F)F)cc3)n3ccccc23)ccn1Cc1ccnc(OCCO)n1 [Compound 132, 1-((2-(2-hydroxyethoxy)pyrimidin-4-yl)methyl)-4-(3-(4-(trifluoromethyl)phenyl)imidazo[1,5-a]pyridin-1-yl)pyridin-2(1H)-one] | ≤ 1000 nM | ≤ 100 nM |
| O=c1cc(-c2nn(-c3ccc(C(F)(F)F)cc3)c3c(F)cccc23)ccn1Cc1ccnc(OCCO)n1 [Compound 133, 4-(7-fluoro-1-(4-(trifluoromethyl)phenyl)-1H-indazol-3-yl)-1-((2-(2-hydroxyethoxy)pyrimidin-4-yl)methyl)pyridin-2(1H)-one] | ≤ 1000 nM | ≤ 100 nM |
| COCCOc1nccc(Cn2ccc(-c3nn(-c4ccc(C(F)(F)F)cc4)c4c(F)cccc34)cc2=O)n1 [Compound 134, 4-(7-fluoro-1-(4-(trifluoromethyl)phenyl)-1H-indazol-3-yl)-1-((2-(2-methoxyethoxy)pyrimidin-4-yl)methyl)pyridin-2(1H)-one] | ≤ 1000 nM | ≤ 100 nM |
| CNc1nccc(Cn2ccc(-n3nc(-c4ccc(C(F)(F)F)cc4)c4c(F)cccc43)cc2=O)n1 [Compound 135, 4-(4-fluoro-3-(4-(trifluoromethyl)phenyl)-1H-indazol-1-yl)-1-((2-(methylamino)pyrimidin-4-yl)methyl)pyridin-2(1H)-one] | ≤ 1000 nM | ≤ 100 nM |
| O=c1cc(-n2nc(-c3ccc(C(F)(F)F)cc3)c3c(F)cccc32)ccn1Cc1ccnc(OCCO)n1 [Compound 136, 4-(4-fluoro-3-(4-(trifluoromethyl)phenyl)-1H-indazol-1-yl)-1-((2-(2-hydroxyethoxy)pyrimidin-4-yl)methyl)pyridin-2(1H)-one] | ≤ 1000 nM | ≤ 100 nM |
| COCCOc1nccc(Cn2ccc(-n3nc(-c4ccc(C(F)(F)F)cc4)c4c(F)cccc43)cc2=O)n1 [Compound 137, 4-(4-fluoro-3-(4-(trifluoromethyl)phenyl)-1H-indazol-1-yl)-1-((2-(2-methoxyethoxy)pyrimidin-4-yl)methyl)pyridin-2(1H)-one] | ≤ 1000 nM | ≤ 100 nM |
| CN(CCO)c1nccc(Cn2ccc(-c3nn(-c4ccc(C(F)(F)F)cc4)c4c(F)cccc34)cc2=O)n1 [Compound 138, 4-(7-fluoro-1-(4-(trifluoromethyl)phenyl)-1H-indazol-3-yl)-1-((2-((2-hydroxyethyl)(methyl)amino)pyrimidin-4-yl)methyl)pyridin-2(1H)-one] | ≤ 1000 nM | 100 to 1000 nM |
| CN(CCO)c1nccc(Cn2ccc(-n3nc(-c4ccc(C(F)(F)F)cc4)c4c(F)cccc43)cc2=O)n1 [Compound 139, 4-(4-fluoro-3-(4-(trifluoromethyl)phenyl)-1H-indazol-1-yl)-1-((2-((2-hydroxyethyl)(methyl)amino)pyrimidin-4-yl)methyl)pyridin-2(1H)-one] | ≤ 1000 nM | ≤ 100 nM |
| CNc1nccc(Cn2ccc(-c3nn(-c4ccc(C(F)(F)F)cc4)c4ccc(F)cc34)cc2=O)n1 [Compound 140, 4-(5-fluoro-1-(4-(trifluoromethyl)phenyl)-1H-indazol-3-yl)-1-((2-(methylamino)pyrimidin-4-yl)methyl)pyridin-2(1H)-one] | ≤ 1000 nM | ≤ 100 nM |
| CNc1nccc(Cn2ccc(-c3nn(-c4ccc(C(F)(F)F)cc4)c4cc(F)ccc34)cc2=O)n1 [Compound 141, 4-(6-fluoro-1-(4-(trifluoromethyl)phenyl)-1H-indazol-3-yl)-1-((2-(methylamino)pyrimidin-4-yl)methyl)pyridin-2(1H)-one] | ≤ 1000 nM | ≤ 100 nM |
| CNc1nccc(Cn2ccc(-c3nn(-c4ccc(C(F)(F)F)cc4)c4c(OC)cccc34)cc2=O)n1 [Compound 142, 4-(7-methoxy-1-(4-(trifluoromethyl)phenyl)-1H-indazol-3-yl)-1-((2-(methylamino)pyrimidin-4-yl)methyl)pyridin-2(1H)-one] | ≤ 1000 nM | 100 to 1000 nM |
| CNc1nccc(Cn2ccc(-c3nn(-c4ccc(C(F)(F)F)cc4)c4c(C)cccc34)cc2=O)n1 [Compound 143, 4-(7-methyl-1-(4-(trifluoromethyl)phenyl)-1H-indazol-3-yl)-1-((2-(methylamino)pyrimidin-4-yl)methyl)pyridin-2(1H)-one] | ≤ 1000 nM | 100 to 1000 nM |
| CNc1nccc(Cn2ccc(-c3nn(-c4ccc(OC(F)(F)F)cc4)c4c(F)cccc34)cc2=O)n1 [Compound 145, 4-(7-fluoro-1-(4-(trifluoromethoxy)phenyl)-1H-indazol-3-yl)-1-((2-(methylamino)pyrimidin-4-yl)methyl)pyridin-2(1H)-one] | ≤ 1000 nM | ≤ 100 nM |
| CNc1nccc(Cn2ccc(-c3nn(-c4ccc(Cl)cc4)c4c(F)cccc34)cc2=O)n1 [Compound 146, 4-(1-(4-chlorophenyl)-7-fluoro-1H-indazol-3-yl)-1-((2-(methylamino)pyrimidin-4-yl)methyl)pyridin-2(1H)-one] | ≤ 1000 nM | ≤ 100 nM |
